Test results reported in patent US20230286973A1, “PROTEIN SECRETION INHIBITORS” (KEZAR LIFE SCIENCES, priority 2020, published 2023).
pEC50, pIC50: −log10 of the molar value.

Key:
[1] = Liver Microsome Stability Assay (mouse); details: mouse liver microsomes, with NADPH, 1.0 uM compound
Protocol: (§1) Stability of a compound was assessed in the presence of liver microsomes from various sources—mouse, rat, monkey and human liver microsomes. 1.0 uM compound, 0.4% DMSO in 0.1 M Potassium Phosphate with 1.0 mg/mL liver microsomes, were incubated at 37° C. with or without 1 mM NADPH. The samples were quenched at 0, and 30 minutes.

[2] = Liver Microsome Stability Assay (monkey); details: monkey liver microsomes, with NADPH, 1.0 uM compound
Protocol: as §1

[3] = test system: TNFα-FL/Gaussia Luciferase; assay: Dox Induced TNFα-FL-Gluc Assay; format: cell-based; details: for pIC50: 24 hr Dox induction, 293FRT/TO cells, mean, read-out: 24 hr Dox Inducible TNFaFLGluc 293FRT/TO: Mean IC50; for 24 hr Dox Inducible TNFaFLGluc 293FRT/TO: TNF/PD1: ratio of TNFaFLGluc IC50 to PD1ssGluc IC50, '<=>' given where both are I.A.
Procedure, shortened: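 Flp-In 293 T-REx cells stably expressing full-length TNFα (aa 1-233) fused at its C-terminus to Gaussia luciferase under tetracycline-regulated control were plated the day before assay. Compound dilutions in DMSO/media containing doxycycline were added and incubated at 37 °C, 5% CO2. Unspecified stereochemistry denotes stereoisomer mixtures.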

[4] = Liver Microsome Stability Assay (human); details: human liver microsomes, with NADPH, 1.0 uM compound
Protocol: as §1

[5] = test system: IL-2-FL/Gaussia Luciferase; assay: Dox Induced IL2-FL-Gluc Assay; format: cell-based; details: for pIC50: 24 hr Dox induction, 293FRT/TO cells, mean, read-out: 24 hr Dox Inducible IL2FLGluc 293FRT/TO: Mean IC50; for 24 hr Dox Inducible IL2FLGluc 293FRT/TO: IL2/PD1: ratio of IL2FLGluc IC50 to PD1ssGluc IC50, '<=>' given where both are I.A.
Procedure, shortened: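 Flp-In 293 T-REx cells stably carrying doxycycline-inducible full-length IL-2 (aa 1-153) fused at its C-terminus to Gaussia luciferase, selected with hygromycin and blasticidin. Cells were plated the day before, then treated with compounds in DMSO/media containing doxycycline at 37° C, 5% CO2.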

[6] = test system: PD1-ss+10aa/Gaussia Luciferase; assay: Dox-Induced PD1-ss-Gluc Assay; format: cell-based; details: 24 hr Dox induction; 293FRT/TO cells; mean; read-out: 24 hr Dox Inducible PD1ssGluc 293FRT/TO: Mean IC50
Procedure, shortened: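 Flp-In 293 T-REx cells stably carrying a doxycycline-inducible Gaussia luciferase fused to the PD1 signal sequence plus 10 aa were plated the day before. Compound dilutions in DMSO/media containing doxycycline were then added and incubated at 37 °C, 5% CO2. Data for undefined stereochemistry refer to stereoisomer mixtures.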

[7] = Liver Microsome Stability Assay (rat); details: rat liver microsomes, with NADPH, 1.0 uM compound
Protocol: as §1

[8] = test system: multiple myeloma cell line NCI-H929; assay: H929 Cell Viability Assay; format: cell-based, human; details: Homo sapiens, NCI-H929, 48 h, NCI-H929 cells, Celltiter-Glo
Procedure, shortened: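 NCI-H929 cells, resuspended in RPMI 1640 with 10% FBS and 2 mM glutamine, were treated with compound dilutions in DMSO/media and incubated 48 hours at 37° C, 5% CO2. Viability was read by CellTiter-Glo luminescence. Compounds drawn without stereochemistry were tested as stereoisomer mixtures.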

[9] = test system: multiple myeloma cell line U266B1; assay: U266 Cell Viability Assay; format: cell-based, human; details: Homo sapiens, U-266, 48 h, U266B1 cells, Celltiter-Glo
Procedure, shortened: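 Cells grown in RPMI 1640 with 10% FBS, 2 mM glutamine and penicillin/streptomycin were exposed to compound dilutions in DMSO/media for 48 hours at 37° C., 5% CO2. Viability was read by CellTiter-Glo luminescence. Undefined stereocentres mean data for stereoisomer mixtures.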

[10] = test system: HER3-ss+4aa/Gaussia Luciferase; assay: Dox-Induced Her3-ss-Gluc Assay; format: cell-based; details: 24 hr Dox induction; 293FRT/TO cells; mean; read-out: 24 hr Dox Inducible Her3(ss + 4)Gluc 293FRT/TO: Mean IC50
Procedure, shortened: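 Stable Flp-In 293 T-REx line expressing Gaussia luciferase fused to the HER3 signal sequence plus 4 amino acids under tetracycline-regulated (T-REx) control. Cells plated the day before, then treated with compound dilutions in DMSO/media containing doxycycline and incubated at 37° C., 5% CO2.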

For `N#CCCCCn1cccc1C(=O)Nc1nc([C@H]2CCCN2c2ccccc2)cs1` [Compound C1, (R)-1-(4-cyanobutyl)-N-(4-(1-phenylpyrrolidin-2-yl)thiazol-2-yl)-1H-pyrrole-2-carboxamide], the “Liver Microsome Stability (Multiple Species): Mouse - % Remaining after 30 min w/NADPH” value [1] was 23.2%, the “Liver Microsome Stability (Multiple Species): Monkey - % Remaining after 30 min w/NADPH” value [2] was 0.35% and the pIC50 [3] was 5.00. The “24 hr Dox Inducible TNFaFLGluc 293FRT/TO: TNF/PD1” value [3] was 22.1, the “Liver Microsome Stability (Multiple Species): Human - % Remaining after 30 min w/NADPH” value [4] was 29.3% and the pIC50 [5] was 5.90. The “24 hr Dox Inducible IL2FLGluc 293FRT/TO: IL2/PD1” value [5] was 2.8, the pIC50 [6] was 6.34 and the “Liver Microsome Stability (Multiple Species): Rat - % Remaining after 30 min w/NADPH” value [7] was 7.64%. The pEC50 [8] was 4.62, the pEC50 [9] was under 4.60 and the pIC50 [10] was 5.88.
In the case of `N#CCCCn1cccc1C(=O)Nc1nc([C@H]2CCCN2c2ccccc2)cs1` [Compound C2, (R)-1-(3-cyanopropyl)-N-(4-(1-phenylpyrrolidin-2-yl)thiazol-2-yl)-1H-pyrrole-2-carboxamide], the “Liver Microsome Stability (Multiple Species): Mouse - % Remaining after 30 min w/NADPH” value [1] was 18%, the “Liver Microsome Stability (Multiple Species): Monkey - % Remaining after 30 min w/NADPH” value [2] was 0.23% and the pIC50 [3] was 5.01. For the same molecule, the “24 hr Dox Inducible TNFaFLGluc 293FRT/TO: TNF/PD1” value [3] was 20.2, the “Liver Microsome Stability (Multiple Species): Human - % Remaining after 30 min w/NADPH” value [4] was 33.9% and the pIC50 [5] was 5.82. The “24 hr Dox Inducible IL2FLGluc 293FRT/TO: IL2/PD1” value [5] was 3.1, the pIC50 [6] was 6.32 and the “Liver Microsome Stability (Multiple Species): Rat - % Remaining after 30 min w/NADPH” value [7] was 17.6%. The pEC50 [8] was under 4.60, the pEC50 [9] was under 4.60 and the pIC50 [10] was 5.86.
In the case of `O=C(Nc1nc([C@H]2CCCN2c2ccccc2)cs1)c1cccn1CCC1CCOC1` (stereo partly drawn) [Compound C3, N-(4-((R)-1-phenylpyrrolidin-2-yl)thiazol-2-yl)-1-(2-(tetrahydrofuran-3-yl)ethyl)-1H-pyrrole-2-carboxamide], the “Liver Microsome Stability (Multiple Species): Mouse - % Remaining after 30 min w/NADPH” value [1] was 9.29%, the “Liver Microsome Stability (Multiple Species): Monkey - % Remaining after 30 min w/NADPH” value [2] was 8.3% and the pIC50 [3] was 4.82. For the same molecule, the “24 hr Dox Inducible TNFaFLGluc 293FRT/TO: TNF/PD1” value [3] was 13.5, the “Liver Microsome Stability (Multiple Species): Human - % Remaining after 30 min w/NADPH” value [4] was 16% and the pIC50 [5] was 5.52. The “24 hr Dox Inducible IL2FLGluc 293FRT/TO: IL2/PD1” value [5] was 2.7, the pIC50 [6] was 5.95 and the “Liver Microsome Stability (Multiple Species): Rat - % Remaining after 30 min w/NADPH” value [7] was 4.35%. The pEC50 [8] was 4.79, the pEC50 [9] was under 4.60 and the pIC50 [10] was 5.64.
In the case of `O=C(Nc1nc([C@H]2CCCN2c2ccccc2)cs1)c1cccn1CCCCc1nnn[nH]1` [Compound C4, (R)-1-(4-(1H-tetrazol-5-yl)butyl)-N-(4-(1-phenylpyrrolidin-2-yl)thiazol-2-yl)-1H-pyrrole-2-carboxamide], the “Liver Microsome Stability (Multiple Species): Mouse - % Remaining after 30 min w/NADPH” value [1] was 49.1%, the “Liver Microsome Stability (Multiple Species): Monkey - % Remaining after 30 min w/NADPH” value [2] was 70.3% and the pIC50 [3] was 4.78. For the same molecule, the “24 hr Dox Inducible TNFaFLGluc 293FRT/TO: TNF/PD1” value [3] was 21.1, the “Liver Microsome Stability (Multiple Species): Human - % Remaining after 30 min w/NADPH” value [4] was 96.7% and the pIC50 [5] was 5.71. The “24 hr Dox Inducible IL2FLGluc 293FRT/TO: IL2/PD1” value [5] was 2.5, the pIC50 [6] was 6.11 and the “Liver Microsome Stability (Multiple Species): Rat - % Remaining after 30 min w/NADPH” value [7] was 62.1%. For the same molecule, the pEC50 [8] was under 4.60, the pEC50 [9] was under 4.60 and the pIC50 [10] was 5.81.
In the case of `O=C(Nc1nc([C@H]2CCCN2c2ccccc2)cs1)c1cccn1Cc1ccccc1` [Compound C5, (R)-1-benzyl-N-(4-(1-phenylpyrrolidin-2-yl)thiazol-2-yl)-1H-pyrrole-2-carboxamide], the “Liver Microsome Stability (Multiple Species): Mouse - % Remaining after 30 min w/NADPH” value [1] was 65.6%, the “Liver Microsome Stability (Multiple Species): Monkey - % Remaining after 30 min w/NADPH” value [2] was 63% and the pIC50 [3] was under 4.60. For the same molecule, the “24 hr Dox Inducible TNFaFLGluc 293FRT/TO: TNF/PD1” value [3] was over 11.4, the “Liver Microsome Stability (Multiple Species): Human - % Remaining after 30 min w/NADPH” value [4] was 87.9% and the pIC50 [5] was 5.54. For the same molecule, the “24 hr Dox Inducible IL2FLGluc 293FRT/TO: IL2/PD1” value [5] was 1.3, the pIC50 [6] was 5.66 and the “Liver Microsome Stability (Multiple Species): Rat - % Remaining after 30 min w/NADPH” value [7] was 67.5%. The pEC50 [8] was under 4.60, the pEC50 [9] was under 4.60 and the pIC50 [10] was 5.62.
